Test results from the supplement of paper PMC10307832.

Assays:
Assay in all cases: relative viability (nuclei count vs DMSO), 5 days (fraction); higher = more cells survive
[1] = tested on: CAL-12T
In short: (§1)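 A single step with final 0.05% Triton X-100, 1% formaldehyde and 1 ug/ml Hoechst fixed the cells and stained nuclei 5 days after treatment. Lung cancer cell lines in 1536-well plates had been treated by pin tool the day after seeding with one drug alone or a fixed anchor-drug dose plus five library-drug doses (not always all listed) in √10 steps, and nuclei were counted on 4× images. Relative viability is the ratio of nuclei in treated wells to nuclei in vehicle wells, taken as the median of duplicate plates.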

[2] = tested on: SW 1573
In short: as §1

[3] = tested on: HCC-366
In short: as §1

[4] = tested on: NCI-H1755
In short: as §1

[5] = tested on: NCI-H1915
In short: as §1

[6] = tested on: EMC-BAC-2
In short: as §1

[7] = tested on: NCI-H522
In short: as §1

[8] = tested on: NCI-H1395
In short: as §1

[9] = tested on: NCI-H727
In short: as §1

[10] = tested on: COR-L 105
In short: as §1

[11] = tested on: HOP-62
In short: as §1

[12] = tested on: NCI-H23
In short: as §1

[13] = tested on: HARA
In short: as §1

[14] = tested on: NCI-H2228
In short: as §1

[15] = tested on: A-427
In short: as §1

[16] = tested on: NCI-H2009
In short: as §1

[17] = tested on: LCLC-103H
In short: as §1

[18] = tested on: HCC-827
In short: as §1

[19] = tested on: NCI-H1437
In short: as §1

[20] = tested on: SK-LU-1
In short: as §1

[21] = tested on: NCI-H460
In short: as §1

Compound: O=c1cc(-c2cccc3c2Sc2ccccc2S3)oc(N2CCOCC2)c1 + Cc1cc(Nc2cc(N3CCN(C)CC3)nc(Sc3ccc(NC(=O)C4CC4)cc3)n2)n[nH]1 [Tozasertib] (partner 0.1 µM)
- relative viability ([1]; first compound 0.08 µM): 0.296
- relative viability ([1]; first compound 0.253 µM): 0.292
- relative viability ([1]; first compound 0.8 µM): 0.32
- relative viability ([1]; first compound 2.53 µM): 0.232
- relative viability ([1]; first compound 8 µM): 0.224
- relative viability ([2]; first compound 0.08 µM): 0.175
- relative viability ([2]; first compound 0.253 µM): 0.186
- relative viability ([2]; first compound 0.8 µM): 0.197
- relative viability ([2]; first compound 2.53 µM): 0.175
- relative viability ([2]; first compound 8 µM): 0.125
- relative viability ([3]; first compound 0.08 µM): 0.144
- relative viability ([3]; first compound 0.253 µM): 0.367
- relative viability ([3]; first compound 0.8 µM): 0.093
- relative viability ([3]; first compound 2.53 µM): 0.0682
- relative viability ([3]; first compound 8 µM): 0.0642
- relative viability ([4]; first compound 0.08 µM): 0.609
- relative viability ([4]; first compound 0.253 µM): 0.582
- relative viability ([4]; first compound 0.8 µM): 0.592
- relative viability ([4]; first compound 2.53 µM): 0.64
- relative viability ([4]; first compound 8 µM): 0.567
- relative viability ([5]; first compound 0.08 µM): 0.495
- relative viability ([5]; first compound 0.253 µM): 0.446
- relative viability ([5]; first compound 0.8 µM): 0.428
- relative viability ([5]; first compound 2.53 µM): 0.401
- relative viability ([5]; first compound 8 µM): 0.332
- relative viability ([6]; first compound 0.08 µM): 0.242
- relative viability ([6]; first compound 0.253 µM): 0.299
- relative viability ([6]; first compound 0.8 µM): 0.295
- relative viability ([6]; first compound 2.53 µM): 0.257
- relative viability ([6]; first compound 8 µM): 0.293
- relative viability ([7]; first compound 0.08 µM): 0.632
- relative viability ([7]; first compound 0.253 µM): 0.544
- relative viability ([7]; first compound 0.8 µM): 0.512
- relative viability ([7]; first compound 2.53 µM): 0.651
- relative viability ([7]; first compound 8 µM): 0.562
- relative viability ([8]; first compound 0.08 µM): 0.755
- relative viability ([8]; first compound 0.253 µM): 0.738
- relative viability ([8]; first compound 0.8 µM): 0.762
- relative viability ([8]; first compound 2.53 µM): 0.681
- relative viability ([8]; first compound 8 µM): 0.703
- relative viability ([9]; first compound 0.08 µM): 0.656
- relative viability ([9]; first compound 0.253 µM): 0.633
- relative viability ([9]; first compound 0.8 µM): 0.609
- relative viability ([9]; first compound 2.53 µM): 0.535
- relative viability ([9]; first compound 8 µM): 0.668
- relative viability ([10]; first compound 0.08 µM): 0.319
- relative viability ([10]; first compound 0.253 µM): 0.357
- relative viability ([10]; first compound 0.8 µM): 0.32
- relative viability ([10]; first compound 2.53 µM): 0.363
- relative viability ([10]; first compound 8 µM): 0.414
- relative viability ([11]; first compound 0.08 µM): 0.452
- relative viability ([11]; first compound 0.253 µM): 0.362
- relative viability ([11]; first compound 0.8 µM): 0.426
- relative viability ([11]; first compound 2.53 µM): 0.324
- relative viability ([11]; first compound 8 µM): 0.397
- relative viability ([12]; first compound 0.08 µM): 0.629
- relative viability ([12]; first compound 0.253 µM): 0.341
- relative viability ([12]; first compound 0.8 µM): 0.357
- relative viability ([12]; first compound 2.53 µM): 0.296
- relative viability ([12]; first compound 8 µM): 0.283
- relative viability ([13]; first compound 0.08 µM): 0.099
- relative viability ([13]; first compound 0.253 µM): 0.0933
- relative viability ([13]; first compound 0.8 µM): 0.112
- relative viability ([13]; first compound 2.53 µM): 0.133
- relative viability ([13]; first compound 8 µM): 0.0897
- relative viability ([14]; first compound 0.08 µM): 0.213
- relative viability ([14]; first compound 0.253 µM): 0.186
- relative viability ([14]; first compound 0.8 µM): 0.248
- relative viability ([14]; first compound 2.53 µM): 0.163
- relative viability ([14]; first compound 8 µM): 0.18
- relative viability ([15]; first compound 0.08 µM): 0.176
- relative viability ([15]; first compound 0.253 µM): 0.179
- relative viability ([15]; first compound 0.8 µM): 0.196
- relative viability ([15]; first compound 8 µM): 0.204
- relative viability ([16]; first compound 0.08 µM): 0.74
- relative viability ([16]; first compound 0.253 µM): 0.725
- relative viability ([16]; first compound 0.8 µM): 0.8
- relative viability ([16]; first compound 2.53 µM): 0.737
- relative viability ([16]; first compound 8 µM): 0.578
- relative viability ([17]; first compound 0.08 µM): 0.285
- relative viability ([17]; first compound 0.253 µM): 0.502
- relative viability ([17]; first compound 0.8 µM): 0.494
- relative viability ([17]; first compound 2.53 µM): 0.369
- relative viability ([17]; first compound 8 µM): 0.473
- relative viability ([18]; first compound 0.08 µM): 0.462
- relative viability ([18]; first compound 0.253 µM): 0.409
- relative viability ([18]; first compound 0.8 µM): 0.46
- relative viability ([18]; first compound 2.53 µM): 0.415
- relative viability ([18]; first compound 8 µM): 0.437
- relative viability ([19]; first compound 0.08 µM): 0.385
- relative viability ([19]; first compound 0.253 µM): 0.477
- relative viability ([19]; first compound 0.8 µM): 0.43
- relative viability ([19]; first compound 2.53 µM): 0.381
- relative viability ([19]; first compound 8 µM): 0.435
- relative viability ([20]; first compound 0.08 µM): 0.309
- relative viability ([20]; first compound 0.253 µM): 0.312
- relative viability ([20]; first compound 0.8 µM): 0.313
- relative viability ([20]; first compound 2.53 µM): 0.269
- relative viability ([20]; first compound 8 µM): 0.322
- relative viability ([21]; first compound 0.08 µM): 0.453
- relative viability ([21]; first compound 0.253 µM): 0.364
- relative viability ([21]; first compound 0.8 µM): 0.147
- relative viability ([21]; first compound 2.53 µM): 0.257
- relative viability ([21]; first compound 8 µM): 0.166
